Earlier results on 4 molecules are cited in patent US6849589B2, “Cleaning composition” (3M Innovative Properties Company, priority 2001, dated 2005).

The conditions of the data set: in water, at about 20° C.

Turning to `CCCCCCCCO` [Example 1-octanol, 1-octanol], the water solubility entry is recorded as “about 0.1 weight percent”. As to `CC(C)CCCCCO` [isooctyl alcohol], the water solubility result was “about 0.06 weight percent”. Turning to `CC(C)CC(=O)CC(C)C` [di-isobutyl ketone], the water solubility result is reported as “about 0.05 weight percent”. Turning to `CCCCCCCCN1CCCC1=O` [N-octyl pyrrolidone], the water solubility result is recorded as “about 0.124 weight percent”.
